# In US20080279961A1, “TELOMERE TARGETING AGENTS AS STEM CELLS DIRECTED TREATMENTS” (priority 2007, published 2008):
# Entries after “also recorded” stand apart in the source; their conditions may differ.
# Experiments:
# R1 prostate cancer cells = assay: side population analysis; type: cell-based
# Text: In one embodiment of the invention, cancer stem cells have shorter telomeres than other cancer cells (FIG. 7). Side population analysis was done to distinguish between cancer stem cells in R1 prostate cancer cells and […]. A primitive CD34^low/neg stem cell population has been defined in normal bone marrow, which has the unique capacity to efflux lipophilic dyes such as Hoechst 33342 as a result of high levels of expression of P-glycoprotein (MDRa/ABCB1) transporter and BCRP (breast cancer resistance protein, ABCG2). […] R1 is the parental prostate cancer cell line with a SP of 0.36% of cells of the total population (100%). […] Subclones of the R1 chemosensitive prostate cancer cell line that are resistant to the clinically used cytotoxic agents mitoxantrone and docetaxel, show a much expanded SP of 45% and 83% of cells respectively. In fact docetaxel resistant R1 cells are almost all stem cell like cells.
# [1] = tolerability in xenograft studies (body weight, deaths, MTD)
# Description: For the first in vivo experiment, tumor fragments (5×5 mm) from untreated donor animals were implanted subcutaneously into both flanks of recipient mice. Treatment was initiated 6 days after transplantation (=day 0, median tumor volume of ˜70 mm^3). Animals were randomized into groups following Lindner's randomization tables and treated by oral gavage with 5 mg/kg/d RHPS4 or vehicle (phosphate buffered saline) respectively (n=5-8 animals per group). […] Drug administration was repeated twice weekly for 8 times (Q3dx8) after randomization. Tumor growth was followed twice weekly by serial caliper measurement, body weights were recorded, and tumor volumes were calculated using the standard formula (length×width^2)/2, where length is the largest dimension and width the smallest dimension perpendicular to the length (Alley et al., 2004; Geran et al., 1972). The median relative tumor volume was plotted against time. Relative tumor volumes were calculated for each single tumor by dividing the tumor volume on day X by that on day 0 (time of randomization). Growth curves were analyzed in terms of tumor inhibition (treated/control, T/C, calculated as median tumor weight of treated divided by median tumor weight of control animals times 100). Statistical data analysis was done using non-parametrical Wilcoxon Mann-Whitney statistics. Median relative tumor volumes of each treatment group were compared with those of the vehicle control groups. P values less than 0.05 were considered statistically significant. SPSS 2000, SYSTAT version 10 software was used.
# To conduct combination treatment with Paclitaxel, after 4 serial propagations of RHPS4 treated tumor tissue in nude mice (FIG. 1), RHPS4 was combined with Paclitaxel. Single agent Paclitaxel was given at 20 mg/kg i.v. on days 1 and 15. In combination with RHPS4 (given at 5 mg/kg p.o. twice weekly), only a single dose of Paclitaxel (20 mg/kg i.v.) was administered on day 1. Tumor growth parameters and body weight were assessed as described above.
# UXF1138L xenografts [2] = assay: tumor growth inhibition of subcutaneous xenografts; type: in vivo, nude mice
# UXF1138L xenografts [3] = settings: mouse, in vivo; cited from earlier work
structure (smiles),measurement,setting,value
COc1ccc2c3c([nH]c2c1)[C@H](CC(C)C)N1C(=O)[C@H](CCC(=O)OC(C)(C)C)NC(=O)[C@@H]1C3 [Ko143],effect on side population (SP),R1 prostate cancer cells,abolishes the SP
"CC(=O)O[C@H]1C(=O)[C@@]2(C)[C@H]([C@H](OC(=O)c3ccccc3)[C@]3(O)C[C@H](OC(=O)[C@H](O)[C@@H](NC(=O)c4ccccc4)c4ccccc4)C(C)=C1C3(C)C)[C@]1(OC(C)=O)CO[C@@H]1C[C@@H]2O [Paclitaxel, reference compound]","Deaths [n/n], drug related death per mice per group",[1]; Passage #4,0/6
same,"BWC, maximal median body weight change","[1]; mouse, in vivo",+6%
same,opt. Test/Control [%],"UXF1138L xenografts [2]; Passage #4, RHPS4 5 mg/kg p.o. twice weekly, Paclitaxel 20 mg/kg i.v.",8%
same,"CR, complete remission","UXF1138L xenografts [2]; Passage #4, tumors per group",2/12
same,"P, progression","UXF1138L xenografts [2]; Passage #4, tumors per group",3/12
same,"PR, partial regression","UXF1138L xenografts [2]; Passage #4, tumors per group",7/12
same,antitumor response in words,UXF1138L xenografts [2]; Passage #4 UXF1138L xenografts,has single agent activity; also recorded: transient remissions; also recorded: Minor remissions
COc1cccc2c1C(=O)c1c(O)c3c(c(O)c1C2=O)C[C@@](O)(C(=O)CO)C[C@@H]3O[C@H]1C[C@H](N)[C@H](O)[C@H](C)O1 [doxorubicin],response of UXF1138L xenograft to standard chemotherapy,UXF1138L xenografts [3],resistant
O=C1c2c(O)ccc(O)c2C(=O)c2c(NCCNCCO)ccc(NCCNCCO)c21 [mitoxantrone],response of UXF1138L xenograft to standard chemotherapy,UXF1138L xenografts [3],resistant
